Results published in PMC4467461, “Small-molecule activation of SERCA2a SUMOylation for the treatment of heart failure” (Nature Communications, 2015).
“Also recorded” adds a separate entry of the source.

How the values were obtained:
[1] = tested on: isolated adult cardiomyocytes; test: Cardiomyocyte contractility and calcium transient, video-based edge-detection system (IonOptix); format: cell-based, Sprague–Dawley rats
Description: Figure 1 N106 increases SERCA2a’s cellular activity and SUMOylation in adult cardiomyocytes. In-vitro characterization of activators of SERCA2a SUMOylation. Cell-based screening of small molecules identified one promising compound. Adult ventricular cardiomyocytes were isolated from Sprague–Dawley rats and treated with small molecules on dose-dependent manner for 24 h. DMSO-treated cardiomyocytes were used as a negative control. (a) Chemical structure of SERCA2a SUMOylation activator. N106, N-(4-methoxybenzo[d]thiazol-2-yl)-5-(4-methoxyphenyl)-1,3,4-oxadiazol-2-amine. (b-g) The effects of N106 compound in cardiomyocyte contractility and calcium transient. The dose-dependent effects of N106 compound presented on peak shortening, the time to maximal departure velocity, the time to maximal return velocity, calcium ratio, decay time constant (τ) and the time to 90% baseline (t90) fluorescence in cardiomyocytes were assessed using a video-based edge-detection system (IonOptix Inc.). n=25 cardiomyocytes from each three of hearts per condition. (h) The effects of N106 compound on the ATPase activity of SERCA2a. The ATPase activity were measured at 25 °C in 50 mM MOPS, 100 mM KCl, 5 mM MgCl2, 1 mM […] at pCa 5.0 by using a coupled enzyme system consisting of pyruvate kinase and lactate dehydrogenase, and monitoring the oxidation of the reduced form of NADH at […]. The enzyme activity was determined by using same set of cardiomyocytes. (i) The effect of N106 compound for the formation of SUMOylated SERCA2a was determined using the same set of cardiomyocytes. Endogenous SERCA2a SUMOylation was detected by immunoprecipitation with anti-SERCA2a and then western blotting with anti-SUMO-1 antibodies. The experiments shown are representative of three independent experiments with similar results. (j) The effect of N106 compound on global SUMOylation was measured by western blot analysis with an anti-SUMO-1 antibody in the same set of cardiomyocytes. The experiments shown are representative of three independent western blottings. Data are represented as mean±s.e.m. (n=3 mice hearts per each condition). Data are represented as mean±s.e.m. *P≤0.05; **P<0.001 (Student’s t-test) from DMSO control.
Figure 2 Time-course experiments with N106 in isolated adult cardiomyocytes. (a–f) Adult ventricular cardiomyocytes were isolated from Sprague–Dawley rats and treated with 10 μM of N106 compound over a time course as indicated. The time course of the contractile response to N106 was determined as peak shortening (a), the time to maximal velocity of sarcomere shortening (b) and re-lengthening (c). The time-course changes in calcium kinetic parameters such as calcium transient (d), decay time constant (e) and the time to 90% baseline fluorescence in cardiomyocytes (f) were detected. n=25 cardiomyocytes from each three of hearts per condition. DMSO was used as vehicle control. The time courses of the ATPase activity of SERCA2a (g), level of SUMOylated SERCA2a (h) and level of SUMO-1 conjugates (i) were determined by using the same set of cardiomyocytes (two independent experiments). Data are represented as mean±s.e.m. *P≤0.05; **P<0.001 (Student’s t-test) from DMSO control.
Ventricular heart muscle cells were isolated from 180∼250 g male Sprague–Dawley rats as described. The hearts were perfused sequentially with low-calcium buffer, enzyme solutions containing collagenases and proteases, and high-potassium solution. Next, the hearts were minced, filtered and resuspended in high-potassium solution. The cardiomyocytes were plated on laminin-coated plates and cultured in medium M199 (Life Technologies, CT, USA) containing proper supplements. […]

[2] = tested on: NCI-60 human tumour cell lines; test: NCI-60 human tumour cell screen (sulforhodamine B); format: cell-based; conditions: single dose 10^-5 M, 48 hours, 60 tumor cell panels incl. MDA-MB-231
From the text: One concern about an agent that enhances SUMOylation is off-target effects including tumour growth. Several studies reported direct involvement of SUMO E1 in the setting of cancer. In patients with hepatocellular carcinoma, UBA2 gene expression was higher and directly correlated with lower survival rate[25]. SUMO E1 was also reported to be an important factor for myc-dependent tumour growth in mice and there is a correlation between low SUMO E1 gene expression and longer metastasis-free survival rate of patients with myc-high breast cancers. Thus, we sought to determine whether N106 would have an effect on cancer cell growth. We performed the NCI-60 human tumour cell screen used by the National Cancer Institute’s Developmental Therapeutics Program (http://dtp.cancer.gov/docs/compare/compare.html). The NCI-60 set includes leukemia, lymphomas and carcinomas of ovarian, renal, breast, prostate, colon, lung and central nervous system origin.
Supplementary Figure 12. NCI 60 cell screening. N106 submitted to the NCI 60 cell screen
has been tested initially at a single high dose of 10^-5 M in 60 different tumor cell panels. 48 hours
after compound treatment, cell density and proliferation was determined by sulforhodamine B

[3] = screen of eight compounds, 10 μM, 24 h

COc1ccc(-c2nnc(Nc3nc4c(OC)cccc4s3)o2)cc1 [Compound N106, N-(4-methoxybenzo[d]thiazol-2-yl)-5-(4-methoxyphenyl)-1,3,4-oxadiazol-2-amine]
inotropic effect in isolated cardiomyocytes ([1]; 10 μM, 24 h): positive inotropic effects | positive effect on cardiomyocytes contractility ([1]; at over 50 μM concentration): no longer observed | Calcium-transient amplitude ([1]; dose–response, 10 nM, 24 h): 0.18±0.01 | exponential decay of time constant, τ ([1]; dose–response, 10 nM, 24 h): 0.20 ± 0.01 s | maximal velocities of cell contraction ([1]; dose–response, 10 nM, 24 h): −1.93±0.08 μm s^−1 | maximal velocities of cell relaxation ([1]; dose–response, 10 nM, 24 h): 1.76±0.08 μm s^−1 | peak shortening ([1]; dose–response, 10 nM, 24 h): 7.63±0.48% | time for 90% decay, t90 ([1]; dose–response, 10 nM, 24 h): 0.47 ± 0.02 s | Calcium-transient amplitude ([1]; dose–response, 100 nM, 24 h): 0.21±0.01 | exponential decay of time constant, τ ([1]; dose–response, 100 nM, 24 h): 0.20 ± 0.01 s | maximal velocities of cell contraction ([1]; dose–response, 100 nM, 24 h): −2.17±0.10 μm s^−1 | maximal velocities of cell relaxation ([1]; dose–response, 100 nM, 24 h): 1.98±0.12 μm s^−1 | peak shortening ([1]; dose–response, 100 nM, 24 h): 8.36±0.56% | time for 90% decay, t90 ([1]; dose–response, 100 nM, 24 h): 0.44 ± 0.02 s | Calcium-transient amplitude ([1]; dose–response, 10 μM, 24 h): 0.19±0.00 | exponential decay of time constant, τ ([1]; dose–response, 10 μM, 24 h): 0.16 ± 0.008 s | maximal velocities of cell contraction ([1]; dose–response, 10 μM, 24 h): −2.30±0.19 μm s^−1 | maximal velocities of cell relaxation ([1]; dose–response, 10 μM, 24 h): 1.99±0.15 μm s^−1 | peak shortening ([1]; dose–response, 10 μM, 24 h): 9.10±0.52% | time for 90% decay, t90 ([1]; dose–response, 10 μM, 24 h): 0.35 ± 0.006 s | peak shortening [1, 3]: 12.03±0.80% | transient calcium decay τ [1, 3]: 0.18 ± 0.02 s | calcium amplitude (ratio 360/380 nm) ([1]; time course, 10 μM, 10 min): 0.19±0.01 | maximal velocities of cell contraction ([1]; time course, 10 μM, 10 min): −1.97±0.04 μm s^−1 | maximal velocities of cell relaxation ([1]; time course, 10 μM, 10 min): 1.12±0.11 μm s^−1 | peak shortening ([1]; time course, 10 μM, 10 min): 9.65±0.27% | t90 ([1]; time course, 10 μM, 10 min): 0.40 ± 0.03 s | τ ([1]; time course, 10 μM, 10 min): 0.17 ± 0.02 s | maximal velocities of cell contraction ([1]; time course, 10 μM, 1 h): −1.92±0.09 μm s^−1 | maximal velocities of cell relaxation ([1]; time course, 10 μM, 1 h): 1.67±0.15 μm s^−1 | peak shortening ([1]; time course, 10 μM, 1 h): 8.60±0.23% | t90 ([1]; time course, 10 μM, 1 h): 0.35 ± 0.01 s | τ ([1]; time course, 10 μM, 1 h): 0.14 ± 0.02 s | calcium amplitude (ratio 360/380 nm) ([1]; time course, 10 μM, 1 h (P=0.17)): 0.17±0.01 | calcium amplitude (ratio 360/380 nm) ([1]; time course, 10 μM, 24 h): 0.18±0.008 | maximal velocities of cell contraction ([1]; time course, 10 μM, 24 h): −2.3±0.19 μm s^−1 | maximal velocities of cell relaxation ([1]; time course, 10 μM, 24 h): 1.99±0.15 μm s^−1 | peak shortening ([1]; time course, 10 μM, 24 h): 8.90±0.38% | t90 ([1]; time course, 10 μM, 24 h): 0.35 ± 0.006 s | τ ([1]; time course, 10 μM, 24 h): 0.16 ± 0.008 s | tumour cell growth and proliferation [2]: has not shown any significant oncogenic activity; also recorded: did not induce any tumour cell growth and proliferation
